Counter-ions that a name gives are not always drawn. Like-named read-outs stand apart in the source and are kept apart here.
Legend:
[1] = Dissolution in hot MeOH (phosphate re-crystallisation); format: physicochemical; parameters: key to Observation (sample dissolution in hot MeOH): ✓ = solution; ✓/X = turbid solution; X = suspension
[2] = Polymorph assessment, slurry maturation in 10 solvents between 5 and 50° C.; format: physicochemical; settings: 10 solvents, 5-50° C., 24 hours
Description: (§1) DR-2186-45-01 (20 mg, PHO Pattern 1+Extra Peaks) was weighed into 10 HPLC vials. To this was added 10 volumes (200 μL) of solvent, a stirrer bar and the samples heated to 50° C. on a Polar Bear heat/cool block (400 RPM). After holding at 50° C. for 30 minutes and observation was made and the samples cooled to 5° C. where a further observation was made. All samples were than subjected to heat/cool cycles between 5 and 50° C. holding for 4 hours at each temperature for 24 hours.
A polymorph assessment was carried out in 10 different solvents using PHO Pattern 1+extra peaks as the input material, maturating a slurry of the salt between 5° C. and 50° C. for 24 hours. The results of the XRPD analysis of the samples can be seen in FIG. 118. The isolated solid was the same as the input material in all cases other than MeOH.
as §1, with “DR-2186-46-01” for “DR-2186-45-01”, “TAR” for “PHO”, “1)” for “1+Extra Peaks)”
A polymorph assessment was carried out in 10 different solvents, maturating a slurry of the salt between 5° C. and 50° C. for 24 hours.

[3] = Dynamic Vapor Sorption (DVS), salt screen and scale-up salts; format: physicochemical
Description: Dynamic Vapor Sorption (DVS)
DVS analyses were performed on TA Instrument DVS Q5000. Samples were added to a pre-tared metallised quartz crucible and run at 25° C. from 40% RH to 90% RH, down to zero and back to 40%. This cycle was repeated in increments of 10% RH.

[4] = format: physicochemical; settings: 40° C./75% RH, three days
Description: Physical Stability of Salts
Physical stability stress tests were conducted on generated crystalline salts at controlled temperature and relative humidity. The powder samples were stored at 40° C./75% RH for three days. After this time samples were analysed by XRPD to see whether the physical state of salts changed during the storage.

[5] = Storage at 40° C./75% RH for 1 week, XRPD (salts produced during scale-up); format: physicochemical; settings: salt produced during scale-up
Description: Oxalate Salt HPLC Purity, DVS, Stability at 40° C./75% RH (XRPD and HPLC), PSD/Morphology Assessment

[6] = Solubility assessment in four different media; format: physicochemical; settings: for pH after addition of 1.0 ml media at 37° C. / Observation: 250 mg per vial; for Observation: 1.0 ml media at 37° C.; for solubility: 37 °C, aqueous buffer, thermodynamic from solid, four different media
Description: Solubility assessments of 5-MeO-DMT oxalate, hydrobromide fumarate and benzoate were performed in four different media: […]

[7] = Thermo-Gravimetric Analysis (TGA), thermal stability; settings: for thermal stability up to (TGA): nitrogen
Description: Thermo—Gravimetric Analysis (TGA)
TGA thermograms were obtained with a TA Instrument Discovery 550 in Al pans. The heating rate used was 10° C./min linear ramp from 25 to 400° C. with a nitrogen purging at a rate of 60 ml/min. TGA thermograms were analysed using TRIOS software.

[8] = Oxalate salt solubility by HPLC; format: physicochemical; settings: for solubility: thermodynamic from solid, by HPLC, mother liquors adjusted to the desired pH, read-out: Solubility (mg/ml) of free base
Description: The calibration curve of the free base was prepared between 0.031-0.500 mg/ml and can be seen in FIG. 172.
Oxalate Salt Solubility by HPLC
Mother liquors were adjusted to the desired pH before HPLC quantification.

[9] = Storage at 40° C./75% RH and 25° C./97% RH for 7 days, XRPD and HPLC (Example 3); format: physicochemical
Description: FIG. 128. XRPD diffractogram overlay of 5-MeO-DMT Phosphate Pattern 1 before and after storage at 25° C./97% RH and 40° C./75% RH for 7 days.
FIG. 139. XRPD diffractogram overlay of 5-MeO-DMT Tartrate Pattern 1 before and after storage at 25° C./97% RH and 40° C./75% RH for 7 days.
The sample is classed as slightly hygroscopic with a total reversible mass change of 0.3 wt. % between 0-90% RH. The DVS isotherm and DVS kinetic plot can be seen in FIGS. 124 and 125, respectively. The solid form was unchanged after a double-cycle experiment, the XRPD analysis confirming this can be seen in FIG. 126.
The sample is classed as slightly hygroscopic with a total reversible mass change of 0.6 wt. % between 0-90% RH (FIG. 135). The solid-form was unchanged after the double-cycle experiment (FIG. 136).

[10] = DVS double-cycle experiment (Example 3); format: physicochemical

COc1ccc2[nH]cc(CCN(C)C)c2c1 [DR-2186-45-01, 5-MeO-DMT phosphate]
Observation (sample dissolution in hot MeOH) ([1]; 5 volumes of MeOH, 50° C., 1.00 g PHO Pattern 1+extra peaks): X | Observation (sample dissolution in hot MeOH) ([1]; 8 volumes of MeOH, 50° C.): X | Observation (sample dissolution in hot MeOH) ([1]; 12 volumes of MeOH, 50° C.): X | Observation (sample dissolution in hot MeOH) ([1]; 16 volumes of MeOH, 50° C.): X | Observation (sample dissolution in hot MeOH) ([1]; 18 volumes of MeOH, 50° C.): X | Observation (sample dissolution in hot MeOH) ([1]; 18 volumes of MeOH, 60° C.): X | Observation (sample dissolution in hot MeOH) ([1]; 20 volumes of MeOH, 60° C., 150 RPM, Easymax vessel overhead stirring): X | Observation (sample dissolution in hot MeOH) ([1]; 20 volumes of MeOH, 60° C., scintillation vial): X | Observation (sample dissolution in hot MeOH) ([1]; 22 volumes of MeOH, 60° C., Easymax vessel overhead stirring): X | Observation (sample dissolution in hot MeOH) ([1]; 24 volumes of MeOH, 60° C., Easymax vessel overhead stirring): ✓/X | Observation (sample dissolution in hot MeOH) ([1]; 25 volumes of MeOH, 60° C., 250 RPM, Easymax vessel overhead stirring): ✓ | volumes of MeOH at which dissolution was achieved ([1]; MeOH at 60° C., 1.00 g): 25 volumes | dissolution in 10 volumes of solvent ([2]; listed as PHO Pattern 1+Extra Peaks): Non of the samples completely dissolved

COc1ccc2[nH]cc(CCN(C)C)c2c1 [Fumarate salt, 5-MeO-DMT fumarate]
change of crystalline form during the DVS experiment (DVS / post-DVS XRPD) [3]: a change in crystalline form occurred | mass difference between 40% RH and 0% RH ([3]; DVS, salt produced during scale-up): ~2.84% | crystalline form after storage (XRPD) [4]: some additional peaks were also observed | crystalline form after storage (XRPD) [5]: mixture of form/pattern 1 and form/pattern 2 | pH after addition of 1.0 ml media at 37° C. ([6]; SNF): 5.14 | Observation ([6]; SNF): Clear solution | solubility ([6]; four media: SNF, pH 1.2, pH 4.5 and pH 6.8 media): ≥ 250 mg/mL | pH after addition of 1.0 ml media at 37° C. ([6]; pH 1.2 buffer): 5.24 | Observation ([6]; pH 1.2 buffer): Clear solution | pH after addition of 1.0 ml media at 37° C. ([6]; pH 4.5 buffer): 5.31 | Observation ([6]; pH 4.5 buffer): Clear solution | pH after addition of 1.0 ml media at 37° C. ([6]; pH 6.8 buffer): 5.79 | Observation ([6]; pH 6.8 buffer): Clear solution | thermal stability up to (TGA) ([7]; 10° C./min): 150 °C

Br.COc1ccc2[nH]cc(CCN(C)C)c2c1 [Hydrobromide salt, 5-MeO-DMT hydrobromide]
change of crystalline form during the DVS experiment (DVS / post-DVS XRPD) [3]: no change in crystalline form | hygroscopicity class ([3]; DVS, 25° C.): non-hygroscopic | crystalline form after storage (XRPD) [4]: No change in crystalline form | crystalline form after storage (XRPD) [5]: no change in crystalline form | solubility compared to other salts [6]: high solubility | solubility [6]: ≥ 250 mg/mL | pH after addition of 1.0 ml media at 37° C. ([6]; SNF): 8.13 | Observation ([6]; SNF): Clear solution | pH after addition of 1.0 ml media at 37° C. ([6]; pH 1.2 buffer): 8.09 | Observation ([6]; pH 1.2 buffer): Clear solution | pH after addition of 1.0 ml media at 37° C. ([6]; pH 4.5 buffer): 7.65 | Observation ([6]; pH 4.5 buffer): Clear solution | pH after addition of 1.0 ml media at 37° C. ([6]; pH 6.8 buffer): 7.82 | Observation ([6]; pH 6.8 buffer): Clear solution | thermal stability up to (TGA) ([7]; 10° C./min): 220 °C | temperature with 95% of weight remaining (TGA) ([7]; Ramp 10° C./min to 400° C., salt produced during scale-up): 269 °C

COc1ccc2[nH]cc(CCN(C)C)c2c1 [Oxalate salt, 5-MeO-DMT oxalate]
change of crystalline form during the DVS experiment (DVS / post-DVS XRPD) [3]: no change in the crystalline form | crystalline form after storage (XRPD) [5]: no change in crystalline form | form of isolated solids after solubility experiment (XRPD) [8]: no change in form | solubility ([8]; fassgf or other biorelevant, SNF): 20.2 mg/mL | solubility ([8]; pH 4.5 medium, aqueous buffer, pH 4.5): 35.5 mg/mL | solubility ([8]; pH 6.8 medium, aqueous buffer, pH 6.8): 26.9 mg/mL

COc1ccc2[nH]cc(CCN(C)C)c2c1 [Tartrate Pattern 1, 5-MeO-DMT tartrate]
change by XRPD or HPLC after storage ([9]; 25° C./97% RH): no change | Static Storage 7 days - 40° C./75% RH, XRPD ([9]; 40° C./75% RH): KRPD-TAR Pattern 1 | change by XRPD or HPLC after storage ([9]; 40° C./75% RH): no change | Static Storage 7 days - 40° C./75% RH, HPLC ([9]; 40° C./75% RH, HPLC purity): HPLC-97.8% | TGA mass loss before decomposition [7]: No mass loss observed in sample before | start of decomposition / complete mass loss (TGA) ([7]; 10° C./min): 175 °C | solid form after double-cycle DVS experiment (XRPD) [10]: unchanged | total reversible mass change between 0-90% RH ([10]; DVS): 0.6 wt. % | hygroscopicity class ([10]; DVS 0-90% RH, Example 3): slightly hygroscopic (Pharmaceuticals that pick up between 0.2% and 2.0% moisture at 80% RH are considered slightly hygroscopic) | GVS total mass change as mol eq. water ([10]; from 0-90% RH): RH (0.12 mol eq. of water) and is reversible with mol eq. water | GVS total mass change ([10]; from 0-90% RH, double cycle): Total mass change of 0.58 wt. % from 0-90% | Solid form of the material after GVS by XRPD ([10]; post GVS): unchanged by XRPD. | dissolution in 10 volumes of solvent [2]: No dissolution was observed

Source: patent US11773063B1, “Pharmaceutically acceptable salts and compositions thereof” (priority 2022, dated 2023)
